Test results from US6737383B1, “Herbicidal oxadiazolidines” (priority 1999, dated 2004).

Assays:
morningglory = assay: Test B pre/postemergence morningglory; format: in vivo, Ipomoea hederacea; conditions: for Morningglory plant response rating: Postemergence; for Plant response rating, Morningglory: Preemergence
How it was run: (§1)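 Test chemicals in a non-phytotoxic solvent mixture with surfactant were sprayed preemergence onto planted seeds and postemergence onto plants 2 to 18 cm tall (1- to 4-leaf stage). After twelve to sixteen days in a greenhouse, injury was visually rated against untreated controls from 0 (no effect) to 10 (complete control).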

pigweed = assay: Test B pre/postemergence pigweed; format: in vivo, Amaranthus retroflexus; conditions: for Redroot pigweed plant response rating: Postemergence; for Plant response rating, Redroot pigweed: Preemergence
How it was run: as §1

sugar beet = assay: Test B pre/postemergence sugar beet; format: in vivo, Beta vulgaris; conditions: for Sugarbeets plant response rating: Postemergence; for Plant response rating, Sugarbeets: Preemergence
How it was run: as §1

blackgrass = assay: Test B pre/postemergence blackgrass; format: in vivo, Alopecurus myosuroides; conditions: for Blackgrass plant response rating: Postemergence; for Plant response rating, Blackgrass: Preemergence
How it was run: as §1

wheat = assay: Test B pre/postemergence wheat; format: in vivo, Triticum aestivum; conditions: for Wheat plant response rating: Postemergence; for Plant response rating, Wheat: Preemergence
How it was run: as §1

wild oat = assay: Test B pre/postemergence wild oat; format: in vivo, Avena fatua; conditions: for Wild oats plant response rating: Postemergence; for Plant response rating, Wild oats: Preemergence
How it was run: as §1

purple nutsedge = assay: Test B pre/postemergence purple nutsedge; format: in vivo, Cyperus rotundus; conditions: for Nutsedge plant response rating: Postemergence; for Plant response rating, Nutsedge: Preemergence
How it was run: as §1

rape = assay: Test B pre/postemergence rape; format: in vivo, Brassica napus; conditions: for Rape plant response rating: Postemergence; for Plant response rating, Rape: Preemergence
How it was run: as §1

smallflower flatsedge = assay: Test B flood test smallflower flatsedge; format: in vivo, Cyperus difformis
How it was run: (§2)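 Plants were grown to the 2-leaf stage before treatment with test chemical, then held in a greenhouse for twelve to sixteen days. Injury was visually rated against untreated controls on a 0–10 scale, where 0 is no effect and 10 is complete control.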

corn = assay: Test B pre/postemergence corn; format: in vivo, Zea mays; conditions: for Corn plant response rating: Postemergence; for Plant response rating, Corn: Preemergence
How it was run: as §1

bedstraw = assay: Test B pre/postemergence bedstraw; format: in vivo, Galium aparine; conditions: for Bedstraw plant response rating: Postemergence
How it was run: as §1

cocklebur = assay: Test B pre/postemergence cocklebur; format: in vivo, Xanthium strumarium; conditions: for Cocklebur plant response rating: Postemergence; for Plant response rating, Cocklebur: Preemergence
How it was run: as §1

velvetleaf = assay: Test B pre/postemergence velvetleaf; format: in vivo, Abutilon theophrasti; conditions: for Velvetleaf plant response rating: Postemergence; for Plant response rating, Velvetleaf: Preemergence
How it was run: as §1

soybean = assay: Test B pre/postemergence soybean; format: in vivo, Glycine max; conditions: for Soybean plant response rating: Postemergence; for Plant response rating, Soybean: Preemergence
How it was run: as §1

giant foxtail = assay: Test B pre/postemergence giant foxtail; format: in vivo, Setaria faberii; conditions: for Giant foxtail plant response rating: Postemergence; for Plant response rating, Giant foxtail: Preemergence
How it was run: as §1

bamyardgrass = assay: Test B flood test barnyardgrass; format: in vivo, Echinochloa crus-galli
How it was run: as §2

crabgrass = assay: Test B pre/postemergence crabgrass; format: in vivo, Digitaria sanguinalis; conditions: for Crabgrass plant response rating: Postemergence; for Plant response rating, Crabgrass: Preemergence
How it was run: as §1

rice = assay: Test B flood test rice; format: in vivo, Oryza sativa
How it was run: as §2

surinam grass = assay: Test B pre/postemergence surinam grass; format: in vivo, Brachiaria decumbens; conditions: for B. signalgrass plant response rating: Postemergence; for Plant response rating, B. signalgrass: Preemergence
How it was run: as §1

duck salad = assay: Test B flood test duck salad; format: in vivo, Heteranthera limosa
How it was run: as §2

[1] = Rate 125 g/ha, scale of 0 to 10 where 0 is no effect and 10 is complete control
[2] = Rate 500 g/ha, scale of 0 to 10 where 0 is no effect and 10 is complete control
[3] = Rate 250 g/ha, scale 0 to 10, 0 is no effect, 10 is complete control
[4] = Rate 500 g/ha, scale 0 to 10, 0 is no effect, 10 is complete control
[5] = Rate 1000 g/ha, scale 0 to 10 (0 no effect, 10 complete control)
[6] = Rate 250 g/ha, scale 0 to 10 (0 no effect, 10 complete control)
[7] = Pre-emergence, Rate 1000 g/ha, scale 0 to 10 (0 no effect, 10 complete control)
[8] = Rate 125 g/ha, under heading Pre-emergence, flood test species, visual evaluation after twelve to sixteen days
[9] = Rate 250 g/ha, Pre-emergence (flood test species), scale 0 to 10, 0 is no effect, 10 is complete control
[10] = Rate 500 g/ha, Pre-emergence section of Table B, 0 to 10 scale (0 no effect, 10 complete control)

## CCOC(=O)CC(C(=O)OCC)n1c(=O)on(C(=O)N(c2ccc(Cl)cc2)C(C)C)c1=O (stereo not drawn) [Compound 681]
morningglory; [1]
  Morningglory plant response rating: 0
  Plant response rating, Morningglory: 0
morningglory; [2]
  Plant response rating, Morningglory: 0
morningglory; [3]
  Morningglory plant response rating: 0
morningglory; [4]
  Morningglory plant response rating: 7
morningglory; [5]
  Plant response rating, Morningglory: 0
pigweed; [1]
  Redroot pigweed plant response rating: 0
  Plant response rating, Redroot pigweed: 0
pigweed; [5]
  Redroot pigweed plant response rating: 7
  Plant response rating, Redroot pigweed: 5
pigweed; [2]
  Plant response rating, Redroot pigweed: 3
pigweed; [3]
  Redroot pigweed plant response rating: 2
pigweed; [4]
  Redroot pigweed plant response rating: 6
Sugar beet; [1]
  Sugarbeets plant response rating: 0
  Plant response rating, Sugarbeets: 0
Sugar beet; [2]
  Plant response rating, Sugarbeets: 0
Sugar beet; [3]
  Sugarbeets plant response rating: 0
Sugar beet; [4]
  Sugarbeets plant response rating: 0
Sugar beet; [5]
  Plant response rating, Sugarbeets: 0
blackgrass; [1]
  Blackgrass plant response rating: 0
  Plant response rating, Blackgrass: 0
blackgrass; [5]
  Blackgrass plant response rating: 4
  Plant response rating, Blackgrass: 6
blackgrass; [6]
  Plant response rating, Blackgrass: 1
blackgrass; [2]
  Plant response rating, Blackgrass: 3
blackgrass; [3]
  Blackgrass plant response rating: 0
blackgrass; [4]
  Blackgrass plant response rating: 0
wheat; [1]
  Wheat plant response rating: 0
  Plant response rating, Wheat: 0
wheat; [2]
  Plant response rating, Wheat: 0
wheat; [3]
  Wheat plant response rating: 0
wheat; [4]
  Wheat plant response rating: 0
wheat; [5]
  Plant response rating, Wheat: 0
Wild oat; [1]
  Wild oats plant response rating: 0
  Plant response rating, Wild oats: 0
Wild oat; [2]
  Plant response rating, Wild oats: 0
Wild oat; [3]
  Wild oats plant response rating: 0
Wild oat; [4]
  Wild oats plant response rating: 0
Wild oat; [5]
  Plant response rating, Wild oats: 3
Purple nutsedge; [1]
  Nutsedge plant response rating: 0
  Plant response rating, Nutsedge: 0
Purple nutsedge; [2]
  Plant response rating, Nutsedge: 0
Purple nutsedge; [3]
  Nutsedge plant response rating: 0
Purple nutsedge; [5]
  Plant response rating, Nutsedge: 0
rape; [1]
  Rape plant response rating: 0
  Plant response rating, Rape: 0
rape; [5]
  Rape plant response rating: 0
  Plant response rating, Rape: 0
rape; [2]
  Plant response rating, Rape: 0
rape; [3]
  Rape plant response rating: 0
rape; [4]
  Rape plant response rating: 0
Smallflower flatsedge; [7]
  S. Flatsedge plant response rating: 0
Smallflower flatsedge; [8]
  S. Flatsedge plant response rating (0 to 10 scale, 0 is no effect, 10 is complete control): 0
Smallflower flatsedge; [9]
  S. Flatsedge plant response rating: 0
Smallflower flatsedge; [10]
  S. Flatsedge plant response rating: 0
corn; [1]
  Corn plant response rating: 0
  Plant response rating, Corn: 0
corn; [5]
  Corn plant response rating: 0
  Plant response rating, Corn: 0
corn; [6]
  Plant response rating, Corn: 0
corn; [2]
  Plant response rating, Corn: 0
corn; [3]
  Corn plant response rating: 0
corn; [4]
  Corn plant response rating: 0
bedstraw; [1]
  Bedstraw plant response rating: 0
bedstraw; Preemergence, Rate 125 g/ha, scale of 0 to 10 where 0 is no effect and 10 is complete control
  Plant response rating, Bedstraw: 0
bedstraw; [3]
  Bedstraw plant response rating: 0
cocklebur; [1]
  Cocklebur plant response rating: 0
  Plant response rating, Cocklebur: 0
cocklebur; [5]
  Cocklebur plant response rating: 0
cocklebur; [6]
  Plant response rating, Cocklebur: 0
cocklebur; [2]
  Plant response rating, Cocklebur: 0
cocklebur; [3]
  Cocklebur plant response rating: 0
cocklebur; [4]
  Cocklebur plant response rating: 0
velvetleaf; [1]
  Velvetleaf plant response rating: 0
  Plant response rating, Velvetleaf: 0
velvetleaf; [2]
  Plant response rating, Velvetleaf: 0
velvetleaf; [3]
  Velvetleaf plant response rating: 0
velvetleaf; [4]
  Velvetleaf plant response rating: 0
velvetleaf; [5]
  Plant response rating, Velvetleaf: 0
soybean; [1]
  Soybean plant response rating: 0
  Plant response rating, Soybean: 0
soybean; [2]
  Plant response rating, Soybean: 0
soybean; [3]
  Soybean plant response rating: 0
soybean; [4]
  Soybean plant response rating: 1
soybean; [5]
  Plant response rating, Soybean: 0
Giant foxtail; [1]
  Giant foxtail plant response rating: 0
  Plant response rating, Giant foxtail: 0
Giant foxtail; [5]
  Giant foxtail plant response rating: 3
  Plant response rating, Giant foxtail: 9
Giant foxtail; [2]
  Plant response rating, Giant foxtail: 9
Giant foxtail; [3]
  Giant foxtail plant response rating: 0
Giant foxtail; [4]
  Giant foxtail plant response rating: 0
bamyardgrass; [7]
  Barnyardgrass plant response rating: 0
bamyardgrass; [8]
  Barnyardgrass plant response rating (0 to 10 scale, 0 is no effect, 10 is complete control): 0
bamyardgrass; [9]
  Barnyardgrass plant response rating: 0
bamyardgrass; [10]
  Barnyardgrass plant response rating: 0
crabgrass; [1]
  Crabgrass plant response rating: 0
  Plant response rating, Crabgrass: 0
crabgrass; [5]
  Crabgrass plant response rating: 2
  Plant response rating, Crabgrass: 8
crabgrass; [6]
  Plant response rating, Crabgrass: 2
crabgrass; [2]
  Plant response rating, Crabgrass: 7
crabgrass; [3]
  Crabgrass plant response rating: 0
crabgrass; [4]
  Crabgrass plant response rating: 0
rice; [7]
  Rice plant response rating: 0
rice; [8]
  Rice plant response rating (0 to 10 scale, 0 is no effect, 10 is complete control): 0
rice; [9]
  Rice plant response rating: 0
rice; [10]
  Rice plant response rating: 0
Surinam grass; [1]
  B. signalgrass plant response rating: 0
  Plant response rating, B. signalgrass: 0
Surinam grass; [5]
  B. signalgrass plant response rating: 0
  Plant response rating, B. signalgrass: 4
Surinam grass; [6]
  Plant response rating, B. signalgrass: 0
Surinam grass; [2]
  Plant response rating, B. signalgrass: 0
Surinam grass; [3]
  B. signalgrass plant response rating: 0
Surinam grass; [4]
  B. signalgrass plant response rating: 0
Duck salad; [7]
  Ducksalad plant response rating: 0
Duck salad; [8]
  Ducksalad plant response rating (0 to 10 scale, 0 is no effect, 10 is complete control): 0
Duck salad; [9]
  Ducksalad plant response rating: 0
Duck salad; [10]
  Ducksalad plant response rating: 0
